This passage reports Activity and Root length results from ChEMBL document CHEMBL3044763, “Inhibitory Activities of Rhodanine Derivatives on Plant Growth” (Biosci Biotechnol Biochem, 1996).

Type in all cases: functional
In experiment [1] the test system is Brassica rapa subsp. oleifera. Briefly: Growth inhibition of Brassica rapa subsp. oleifera assessed as total chlorophyll level at 3 x 10^-4 M after 7 days. The arrangement: scale not given: the % may be the effect or the level left.
Experiment [2] deals with Brassica rapa subsp. oleifera. The experiment is described as follows: Growth inhibition of Brassica rapa subsp. oleifera assessed as root growth at 5 x 10^-5 M after 7 days.
In experiment [3] the test system is Brassica rapa subsp. oleifera. The experiment is described as follows: Growth inhibition of Brassica rapa subsp. oleifera assessed as total chlorophyll level at 1 x 10^-4 M after 7 days. Details: scale not given: the % may be the effect or the level left.
Experiment [4] relates to Brassica rapa subsp. oleifera. The experiment is described as follows: Growth inhibition of Brassica rapa subsp. oleifera assessed as chlorophyll a level at 5 x 10^-5 M after 7 days. Details: scale not given: the % may be the effect or the level left.
Experiment [5] has as its system Brassica rapa subsp. oleifera. Briefly: Growth inhibition of Brassica rapa subsp. oleifera assessed as chlorophyll b level at 3 x 10^-5 M after 7 days. The arrangement: scale not given: the % may be the effect or the level left.
Experiment [6] deals with Brassica rapa subsp. oleifera. Briefly: Growth inhibition of Brassica rapa subsp. oleifera assessed as chlorophyll b level at 3 x 10^-4 M after 7 days. Details: scale not given: the % may be the effect or the level left.
The test system of experiment [7] is Brassica rapa subsp. oleifera. Briefly: Growth inhibition of Brassica rapa subsp. oleifera assessed as total chlorophyll level at 5 x 10^-5 M after 7 days. The arrangement: scale not given: the % may be the effect or the level left.
Experiment [8] has as its system Brassica rapa subsp. oleifera. The experiment is described as follows: Growth inhibition of Brassica rapa subsp. oleifera assessed as chlorophyll b level at 5 x 10^-5 M after 7 days. Details: scale not given: the % may be the effect or the level left.
For experiment [9], the system named is Brassica rapa subsp. oleifera. Briefly: Growth inhibition of Brassica rapa subsp. oleifera assessed as root growth at 3 x 10^-5 M after 7 days.
Experiment [10] relates to Brassica rapa subsp. oleifera. The experiment is described as follows: Growth inhibition of Brassica rapa subsp. oleifera assessed as root growth at 3 x 10^-4 M after 7 days.
Experiment [11] deals with Brassica rapa subsp. oleifera. Briefly: Growth inhibition of Brassica rapa subsp. oleifera assessed as chlorophyll b level at 1 x 10^-4 M after 7 days. The arrangement: scale not given: the % may be the effect or the level left.
Experiment [12] deals with Brassica rapa subsp. oleifera. The experiment is described as follows: Growth inhibition of Brassica rapa subsp. oleifera assessed as chlorophyll a level at 1 x 10^-4 M after 7 days. Details: scale not given: the % may be the effect or the level left.
The subject of experiment [13] is Brassica rapa subsp. oleifera. The experiment is described as follows: Growth inhibition of Brassica rapa subsp. oleifera assessed as chlorophyll a level at 3 x 10^-4 M after 7 days. Details: scale not given: the % may be the effect or the level left.
The test system of experiment [14] is Brassica rapa subsp. oleifera. The experiment is described as follows: Growth inhibition of Brassica rapa subsp. oleifera assessed as total chlorophyll level at 3 x 10^-5 M after 7 days. The arrangement: scale not given: the % may be the effect or the level left.
For experiment [15], the system named is Brassica rapa subsp. oleifera. Briefly: Growth inhibition of Brassica rapa subsp. oleifera assessed as root growth at 1 x 10^-4 M after 7 days.
The subject of experiment [16] is Brassica rapa subsp. oleifera. Briefly: Growth inhibition of Brassica rapa subsp. oleifera assessed as chlorophyll a level at 3 x 10^-5 M after 7 days. The arrangement: scale not given: the % may be the effect or the level left.

As to `O=C([O-])COc1ccc(Cl)cc1Cl.[Na+]`, the Activity came out at 4.82% in experiment [1]; 18.67% in experiment [3]; 11.51% in [4]; 7.32% in experiment [5]; 1.68% in experiment [6]; 16.35% in experiment [7]. Moreover, the Activity in [8] amounted to 4.84%; in experiment [10], 2.1 mm; in experiment [11] it was 6.1%; in experiment [12], 12.57%; in experiment [13], 3.16%; in [14], 25.12%. Also, the Activity in [15] came to 2.6 mm; in experiment [16], 17.82%. In addition, the Root length in experiment [2] stood at 3.1 mm; in experiment [9] it was 3.3 mm.
